From ChEMBL document CHEMBL5579792, “Natural products fragment-based design and synthesis of a novel pentacyclic ring system as potential MAPK inhibitor” (Bioorg Med Chem Lett, 2024)
Values belong to the compound of their own block, whether it stands above or below them. Calls of active or inactive are those of the source. No cut-off for these calls is given here.

Assays:
A549 [1] = experiment: Antiproliferative activity against human A549 cells assessed as inhibition of cell growth by MTT assay; type: functional, cell-based
HCT-116 = experiment: Antiproliferative activity against human HCT-116 cells assessed as inhibition of cell growth by MTT assay; type: functional, cell-based
MDA-MB-231 = experiment: Antiproliferative activity against human MDA-MB-231 cells assessed as inhibition of cell growth by MTT assay; type: functional, cell-based
A549 [2] = experiment: Upregulation of phosphorylated p38/p38 protein expression in human A549 cells at 0.11 to 0.34 uM measured after 48 hrs by Western blot analysis; type: functional, cell-based; details: dose 0.11-0.34 µM
A549 [3] = experiment: Inhibition of cell migration in human A549 cells at 0.22 uM measured after 48 hrs by scratch assay relative to control; type: functional
A549 [4] = experiment: Induction of cell cycle arrest in human A549 cells assessed as accumulation at G2/M phase at 0.34 uM incubated for 48 hrs by PI staining based flow cytometry analysis (reference value: 1.14%); type: functional
A549 [5] = experiment: Induction of cell cycle arrest in human A549 cells assessed as accumulation at G0/G1 phase at 0.11 uM incubated for 48 hrs by PI staining based flow cytometry analysis (reference value: 84.47%); type: functional
A549 [6] = experiment: Induction of cell cycle arrest in human A549 cells assessed as accumulation at S phase at 0.22 uM incubated for 48 hrs by PI staining based flow cytometry analysis (reference value: 12.105%); type: functional
A549 [7] = experiment: Induction of apoptosis in human A549 cells assessed as late apoptotic cells at 0.22 uM incubated for 48 hrs by Annexin V/PI staining based flow cytometry analysis (reference value: 2.96%); type: functional
A549 [8] = experiment: Induction of cell cycle arrest in human A549 cells assessed as accumulation at G2/M phase at 0.11 uM incubated for 48 hrs PI staining based by flow cytometry analysis (reference value: 1.14%); type: functional
A549 [9] = experiment: Inhibition of cell migration in human A549 cells at 0.22 uM measured after 24 hrs by scratch assay relative to control; type: functional
A549 [10] = experiment: Induction of cell cycle arrest in human A549 cells assessed as accumulation at G0/G1 phase at 0.22 uM incubated for 48 hrs by PI staining based flow cytometry analysis (reference value: 84.47%); type: functional
A549 [11] = experiment: Induction of apoptosis in human A549 cells assessed as dead cells at 0.11 uM incubated for 48 hrs by Annexin V/PI staining based flow cytometry analysis (reference value: 4.58%); type: functional
A549 [12] = experiment: Inhibition of cell migration in human A549 cells at 0.34 uM measured after 24 hrs by scratch assay relative to control; type: functional
A549 [13] = experiment: Induction of apoptosis in human A549 cells assessed as increase in caspase-3 protein expression at 0 to 0.34 uM measured after 48 hrs by Western blot analysis; type: functional, cell-based; details: dose 0-0.34 µM
A549 [14] = experiment: Inhibition of cell migration in human A549 cells at 0.34 uM measured after 48 hrs by scratch assay relative to control; type: functional
A549 [15] = experiment: Induction of apoptosis in human A549 cells assessed as late apoptotic cells at 0.11 uM incubated for 48 hrs by Annexin V/PI staining based flow cytometry analysis (reference value: 2.96%); type: functional
A549 [16] = experiment: Inhibition of cell migration in human A549 cells at 0.11 uM measured after 24 hrs by scratch assay relative to control; type: functional
A549 [17] = experiment: Induction of cell cycle arrest in human A549 cells assessed as accumulation at G2/M phase at 0.22 uM incubated for 48 hrs by PI staining based flow cytometry analysis (reference value: 1.14%); type: functional
A549 [18] = experiment: Induction of apoptosis in human A549 cells assessed as live cells at 0.22 uM incubated for 48 hrs by Annexin V/PI staining based flow cytometry analysis (reference value: 90.7%); type: functional
A549 [19] = experiment: Induction of apoptosis in human A549 cells assessed as dead cells at 0.34 uM incubated for 48 hrs by Annexin V/PI staining based flow cytometry analysis (reference value: 4.58%); type: functional
A549 [20] = experiment: Antiproliferative activity against human A549 cells assessed as inhibition of cell growth measured after 48 hrs by MTT assay; type: functional, cell-based; details: A549, 48 h
A549 [21] = experiment: Inhibition of cell migration in human A549 cells at 0.11 uM measured after 48 hrs by scratch assay relative to control; type: functional
A549 [22] = experiment: Induction of cell cycle arrest in human A549 cells assessed as accumulation at S phase at 0.11 uM incubated for 48 hrs by PI staining based flow cytometry analysis (reference value: 12.105%); type: functional
A549 [23] = experiment: Induction of apoptosis in human A549 cells assessed as early apoptotic cells at 0.22 uM incubated for 48 hrs by Annexin V/PI staining based flow cytometry analysis (reference value: 1.79%); type: functional
A549 [24] = experiment: Downregulation of phosphorylated ERK/ERK protein expression in human A549 cells at 0.11 to 0.34 uM measured after 48 hrs by Western blot analysis; type: functional, cell-based; details: dose 0.11-0.34 µM
A549 [25] = experiment: Induction of apoptosis in human A549 cells assessed as dead cells at 0.22 uM incubated for 48 hrs by Annexin V/PI staining based flow cytometry analysis (reference value: 4.58%); type: functional
A549 [26] = experiment: Induction of apoptosis in human A549 cells assessed as late apoptotic cells at 0.34 uM incubated for 48 hrs by Annexin V/PI staining based flow cytometry analysis (reference value: 2.96%); type: functional
A549 [27] = experiment: Antiproliferative activity against human A549 cells assessed as inhibition of cell growth measured after 24 hrs by MTT assay; type: functional, cell-based; details: A549, 24 h
A549 [28] = experiment: Antiproliferative activity against human A549 cells assessed as inhibition of cell growth measured after 72 hrs by MTT assay; type: functional, cell-based; details: A549, 72 h
A549 [29] = experiment: Induction of apoptosis in human A549 cells assessed as live cells at 0.11 uM incubated for 48 hrs by Annexin V/PI staining based flow cytometry analysis (reference value: 90.7%); type: functional
A549 [30] = experiment: Induction of cell cycle arrest in human A549 cells assessed as accumulation at S phase at 0.34 uM incubated for 48 hrs by PI staining based flow cytometry analysis (reference value: 12.105%); type: functional
A549 [31] = experiment: Induction of apoptosis in human A549 cells assessed as live cells at 0.34 uM incubated for 48 hrs by Annexin V/PI staining based flow cytometry analysis (reference value: 90.7%); type: functional
A549 [32] = experiment: Induction of apoptosis in human A549 cells assessed as early apoptotic cells at 0.11 uM incubated for 48 hrs by Annexin V/PI staining based flow cytometry analysis (reference value: 1.79%); type: functional
A549 [33] = experiment: Induction of cell cycle arrest in human A549 cells assessed as accumulation at G0/G1 phase at 0.34 uM incubated for 48 hrs by PI staining based flow cytometry analysis (reference value: 84.47%); type: functional
A549 [34] = experiment: Induction of apoptosis in human A549 cells assessed as early apoptotic cells at 0.34 uM incubated for 48 hrs by Annexin V/PI staining based flow cytometry analysis (reference value: 1.79%); type: functional
A549 [35] = experiment: Downregulation of phosphorylated JNK/JNK protein expression in human A549 cells at 0.11 to 0.34 uM measured after 48 hrs by Western blot analysis; type: functional, cell-based; details: dose 0.11-0.34 µM
A549 [36] = experiment: Induction of apoptosis in human A549 cells assessed as increase in BAX protein expression at 0 to 0.34 uM measured after 48 hrs by Western blot analysis; type: functional, cell-based; details: dose 0-0.34 µM
A549 [37] = experiment: Induction of apoptosis in human A549 cells assessed as reduction in Bcl-2 protein expression at 0 to 0.34 uM measured after 48 hrs by Western blot analysis; type: functional, cell-based; details: dose 0-0.34 µM

Structure (SMILES): CC[C@@]1(O)C(=O)OCc2c1cc1n(c2=O)Cc2cc3ccccc3nc2-1 [CAMPTOTHECIN]
- IC50 (A549 [1]): 0.39 µM

- IC50 (HCT-116): 0.4 µM
- IC50 (MDA-MB-231): 10.1 µM
- IC50 (A549 [1]): 0.43 µM
Structure (SMILES): O=C1c2cc(F)c(Cl)cc2-n2c1nc1nc3ccccc3cc1c2=O

- IC50 (HCT-116): 15 µM
- IC50 (MDA-MB-231): 10.1 µM
- IC50 (A549 [1]): 6.45 µM
Structure (SMILES): O=C1c2cc(F)ccc2-n2c1nc1nc3ccccc3cc1c2=O

Structure (SMILES): O=C1c2ccccc2-n2c1nc1nc3ccccc3cc1c2=O
- Activity (A549 [2]): Active
- inhibition at 0.22 µM (A549 [3]): 56%
- Activity (A549 [4]): 9.58%
- Activity (A549 [5]): 72.8%
- Activity (A549 [6]): 25.65%
- Activity (A549 [7]): 18%
- Activity (A549 [8]): 5.59%
- inhibition at 0.22 µM (A549 [9]): 31%
- Activity (A549 [10]): 62.47%
- Activity (A549 [11]): 7.17%
- inhibition at 0.34 µM (A549 [12]): 38%
- Activity (A549 [13]): Active
- inhibition at 0.34 µM (A549 [14]): 60%
- Activity (A549 [15]): 17.4%
- inhibition at 0.11 µM (A549 [16]): 22%
- Activity (A549 [17]): 8.87%
- Activity (A549 [18]): 66.9%
- Activity (A549 [19]): 9.32%
- IC50 (A549 [20]): 340 nM
- inhibition at 0.11 µM (A549 [21]): 50%
- Activity (A549 [22]): 22.63%
- Activity (A549 [23]): 8.47%
- Activity (A549 [24]): Active
- Activity (A549 [25]): 6.65%
- Activity (A549 [26]): 19.9%
- IC50 (HCT-116): 25.2 µM
- IC50 (MDA-MB-231): 3.54 µM
- IC50 (A549 [27]): 430 nM
- IC50 (A549 [28]): 250 nM
- Activity (A549 [29]): 67.5%
- Activity (A549 [30]): 29.02%
- Activity (A549 [31]): 63.4%
- Activity (A549 [32]): 7.83%
- Activity (A549 [33]): 60.39%
- Activity (A549 [34]): 7.39%
- Activity (A549 [35]): Active
- IC50 (A549 [1]): 0.34 µM
- Activity (A549 [36]): Active
- Activity (A549 [37]): Active

- IC50 (HCT-116): 0.33 µM
- IC50 (MDA-MB-231): 10.3 µM
- IC50 (A549 [1]): 0.53 µM
Structure (SMILES): O=C1c2c(ccc(F)c2Cl)-n2c1nc1nc3ccccc3cc1c2=O

- IC50 (HCT-116): 43.2 µM
- IC50 (MDA-MB-231): 1.95 µM
- IC50 (A549 [1]): 35.1 µM
Structure (SMILES): Cc1ccc2c(c1Cl)C(=O)c1nc3nc4ccccc4cc3c(=O)n1-2

- IC50 (HCT-116): > 100 µM
- IC50 (MDA-MB-231): > 100 µM
- IC50 (A549 [1]): > 100 µM
Structure (SMILES): N/N=C1\c2ccccc2-n2c1nc1nc3ccccc3cc1c2=O

- IC50 (HCT-116): > 100 µM
- IC50 (MDA-MB-231): > 100 µM
- IC50 (A549 [1]): > 100 µM
Structure (SMILES): O=c1c2cc3ccccc3nc2nc2n1-c1ccccc1/C2=N\O

- IC50 (HCT-116): 13.5 µM
- IC50 (MDA-MB-231): 17.6 µM
- IC50 (A549 [1]): 10.3 µM
Structure (SMILES): O=C1c2ccccc2-n2c1nc1cc3ccccc3cc1c2=O [BENZO[K]TRYPTANTHRIN]
